Source: ChEMBL document CHEMBL1156230, “Identification of phenylsulfone-substituted quinoxaline (WYE-672) as a tissue selective liver X-receptor (LXR) agonist” (J Med Chem, 2010)

Legend:
[1] = target: T1, Oxysterols receptor LXR-alpha (Homo sapiens, UniProt Q13133); test: Displacement of [3H]T0901317 from human LXRalpha ligand binding domain
T1 sequence (Q13133 whole entry): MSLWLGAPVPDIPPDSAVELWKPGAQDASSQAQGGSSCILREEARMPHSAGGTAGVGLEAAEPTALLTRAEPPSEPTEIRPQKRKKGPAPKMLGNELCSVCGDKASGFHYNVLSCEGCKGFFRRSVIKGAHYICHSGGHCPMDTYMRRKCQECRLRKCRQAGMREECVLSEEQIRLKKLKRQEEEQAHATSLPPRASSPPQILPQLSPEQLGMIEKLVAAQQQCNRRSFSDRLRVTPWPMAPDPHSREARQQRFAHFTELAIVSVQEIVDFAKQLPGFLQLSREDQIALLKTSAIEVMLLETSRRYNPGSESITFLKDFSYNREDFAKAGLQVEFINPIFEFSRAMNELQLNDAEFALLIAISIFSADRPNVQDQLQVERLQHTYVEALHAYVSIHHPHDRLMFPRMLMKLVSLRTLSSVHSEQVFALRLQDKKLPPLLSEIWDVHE

HepG2 [2] = test: cells; details: Homo sapiens, HepG2, 3 h
HepG2 [3] = test: Agonist activity at LXR in human HepG2 cells assessed as lipid accumulation relative to T0901317
THP-1 = test: cells; details: Homo sapiens
[4] = target: T2, Oxysterols receptor LXR-alpha (Homo sapiens, UniProt Q13133)
[5] = target: T3, Oxysterols receptor LXR-beta (Homo sapiens, UniProt P55055)
T3 sequence (P55055 whole entry): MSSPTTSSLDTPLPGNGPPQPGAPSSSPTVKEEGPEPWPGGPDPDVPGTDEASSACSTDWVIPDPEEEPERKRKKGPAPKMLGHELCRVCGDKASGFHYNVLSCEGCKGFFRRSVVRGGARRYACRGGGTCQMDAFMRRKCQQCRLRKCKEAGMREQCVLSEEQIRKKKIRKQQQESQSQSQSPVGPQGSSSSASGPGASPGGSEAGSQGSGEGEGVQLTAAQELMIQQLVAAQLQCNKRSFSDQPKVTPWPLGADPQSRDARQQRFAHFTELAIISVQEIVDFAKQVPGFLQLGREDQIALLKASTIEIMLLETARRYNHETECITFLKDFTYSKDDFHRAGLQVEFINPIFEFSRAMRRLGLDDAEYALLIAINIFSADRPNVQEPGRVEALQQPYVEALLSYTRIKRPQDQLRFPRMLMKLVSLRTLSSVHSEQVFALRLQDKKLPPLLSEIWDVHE

[6] = target: T3, Oxysterols receptor LXR-beta; remark: listed apart in the source
[7] = target: T2, Oxysterols receptor LXR-alpha; remark: listed apart in the source
[8] = target: T3, Oxysterols receptor LXR-beta; test: Displacement of [3H]T0901317 from human LXRbeta ligand binding domain

| Compound | IC50 [1] [nM] | Efficacy (HepG2 [3]) [%] | EC50 (THP-1) [nM] | also measured |
| --- | --- | --- | --- | --- |
| Cc1nc2c(C(F)(F)F)cccc2nc1-c1cccc(-c2cccc(S(C)(=O)=O)c2)c1 | > 1000 | – | – | – |
| CCS(=O)(=O)c1cccc(-c2ccc(-c3nc4cccc(C(F)(F)F)c4nc3C)cc2)c1 | > 1000 | – | – | – |
| Cc1nc2c(Cl)cccc2nc1-c1ccc(-c2cccc(S(C)(=O)=O)c2)cc1 | – | 18 | 290 | EC50 (HepG2 [2]): 380 nM |
| Cc1nc2c(C(F)(F)F)cccc2nc1-c1ccc(-c2ccc(S(C)(=O)=O)cc2)cc1 | > 1000 | – | – | – |
| CNS(=O)(=O)c1cccc(-c2ccc(-c3nc4cccc(C(F)(F)F)c4nc3C)cc2)c1 | – | 6 | 1470 | – |
| Cc1nc2c(C(F)(F)F)cccc2nc1-c1cccc(-c2ccc(S(C)(=O)=O)cc2)c1 | > 1000 | – | – | – |
| CS(=O)(=O)c1cc(Cl)cc(Oc2cccc(-c3c(C(N)=O)cnc4c(C(F)(F)F)cccc34)c2)c1 | – | 74 | 1890 | EC50 (HepG2 [2]): 3180 nM; EC50 [4]: 5.1 µM; EC50 [5]: 1700 nM; EC50 [6]: 460 nM; EC50 [7]: 10.9 µM; IC50 [8]: 61 nM |
| CNC(=O)c1cccc(-c2ccc(-c3nc4cccc(C(F)(F)F)c4nc3C)cc2)c1 | > 1000 | – | – | – |
| CCc1nc2c(C(F)(F)F)cccc2nc1-c1ccc(-c2cccc(S(C)(=O)=O)c2)cc1 | – | 32 | 900 | EC50 (HepG2 [2]): 350 nM |
| Cc1nc2c(C(F)(F)F)cccc2nc1-c1ccc(-c2ccccc2S(C)(=O)=O)cc1 | > 1000 | – | – | – |
| CS(=O)(=O)c1cccc(-c2ccc(-c3cnc4c(C(F)(F)F)cccc4n3)cc2)c1 | > 1000 | – | – | – |
